According to US12338237B2, “Derivatives having 1,2,3,4-tetrahydronaphthalene moiety or pharmaceutically acceptable salt thereof and pharmaceutical compositions comprising the same” (YUHAN CORPORATION, priority 2019, dated 2025):
Read-outs that look alike come from different tables or passages of the source.

Assays:
GM1 production = test: cells; type: cell-based
[1] = biological target: glucosylceramide synthase (GCS) (Homo sapiens (Human), UniProt Q16739); test: Evaluation of inhibitory activities against GCS (enzyme reaction with A549 cell lysate, NBD C6-ceramide, HPLC fluorescence); type: biochemical; conditions: GCS activity in A549 cell lysate, 37° C. for 90 minutes
Method in brief: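 Lysate of A549 cells in 50 mM HEPES pH 7.3 incubated with test compound and NBD C6-ceramide at 37 °C for 90 min; lipids extracted with chloroform/methanol and GlcCer and ceramide peaks quantified by HPLC fluorescence. Activity from GlcCer area fraction, normalised between DMSO and ibiglustat controls.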

Sequence of glucosylceramide synthase (GCS) (Q16739 whole entry, looked up): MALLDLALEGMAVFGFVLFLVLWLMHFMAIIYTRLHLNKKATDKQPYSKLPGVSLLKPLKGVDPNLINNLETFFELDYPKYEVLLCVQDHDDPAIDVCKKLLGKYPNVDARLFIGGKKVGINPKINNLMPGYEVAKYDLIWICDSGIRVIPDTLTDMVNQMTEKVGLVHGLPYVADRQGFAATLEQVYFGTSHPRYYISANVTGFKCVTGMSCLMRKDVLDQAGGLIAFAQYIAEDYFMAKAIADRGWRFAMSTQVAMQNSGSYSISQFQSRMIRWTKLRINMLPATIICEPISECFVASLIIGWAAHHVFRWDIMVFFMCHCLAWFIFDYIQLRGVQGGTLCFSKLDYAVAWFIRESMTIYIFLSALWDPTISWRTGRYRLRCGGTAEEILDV

| Compound | IC50 (GM1 production; Homo sapiens, Jurkat, 72 h) [µM] | IC50 [1] [µM] | IC50 (GM1 production; read-out: IC50) [µM] |
| --- | --- | --- | --- |
| O=C(NC1c2ccc(-c3cccc(C(F)F)c3)cc2CCC12CC2)O[C@@H]1CN2CCC1CC2 (stereo partly drawn) [Example 206, (S)-quinuclidin-3-yl (6′-(3-(difluoromethyl)phenyl)-3′,4′-dihydro-1′H-spiro[cyclopropane-1,2′-naphthalen]-1′-yl)carbamate] | 0.0152 | 0.0102 | – |
| CN(C)c1cccc(-c2ccc3c(c2)CCC2(CC2)C3NC(=O)O[C@@H]2CN3CCC2CC3)c1 (stereo partly drawn) [Example 207, (S)-quinuclidin-3-yl (6′-(3-(dimethylamino)phenyl)-3′,4′-dihydro-1′H-spiro[cyclopropane-1,2′-naphthalen]-1′-yl)carbamate] | 0.0573 | 0.0232 | – |
| CC(C)Oc1cccc(-c2ccc3c(c2)CCC2(CC2)C3NC(=O)O[C@@H]2CN3CCC2CC3)c1 (stereo partly drawn) [Example 208, (S)-quinuclidin-3-yl (6′-(3-isopropoxyphenyl)-3′,4′-dihydro-1′H-spiro[cyclopropane-1,2′-naphthalen]-1′-yl)carbamate] | 0.0477 | 0.0212 | – |
| COc1cccc(-c2ccc3c(c2)CCC2(CC2)C3NC(=O)O[C@@H]2CN3CCC2CC3)c1OC (stereo partly drawn) [Example 209, (S)-quinuclidin-3-yl (6′-(2,3-dimethoxyphenyl)-3′,4′-dihydro-1′H-spiro[cyclopropane-1,2′-naphthalen]-1′-yl)carbamate] | 0.047 | 0.0152 | – |
| COc1ccc(-c2ccc3c(c2)CCC2(CC2)C3NC(=O)O[C@@H]2CN3CCC2CC3)c(OC)c1 (stereo partly drawn) [Example 210, (S)-quinuclidin-3-yl (6′-(2,4-dimethoxyphenyl)-3′,4′-dihydro-1′H-spiro[cyclopropane-1,2′-naphthalen]-1′-yl)carbamate] | 0.0442 | 0.0236 | – |
| COc1ccc(OC)c(-c2ccc3c(c2)CCC2(CC2)C3NC(=O)O[C@@H]2CN3CCC2CC3)c1 (stereo partly drawn) [Example 211, (S)-quinuclidin-3-yl (6′-(2,5-dimethoxyphenyl)-3′,4′-dihydro-1′H-spiro[cyclopropane-1,2′-naphthalen]-1′-yl)carbamate] | 0.147 | 0.0276 | – |
| COc1cccc(OC)c1-c1ccc2c(c1)CCC1(CC1)C2NC(=O)O[C@@H]1CN2CCC1CC2 (stereo partly drawn) [Example 212, (S)-quinuclidin-3-yl (6′-(2,6-dimethoxyphenyl)-3′,4′-dihydro-1′H-spiro[cyclopropane-1,2′-naphthalen]-1′-yl)carbamate] | 0.221 | 0.104 | – |
| COc1ccc(-c2ccc3c(c2)CCC2(CC2)C3NC(=O)O[C@@H]2CN3CCC2CC3)cc1OC (stereo partly drawn) [Example 213, (S)-quinuclidin-3-yl (6′-(3,4-dimethoxyphenyl)-3′,4′-dihydro-1′H-spiro[cyclopropane-1,2′-naphthalen]-1′-yl)carbamate] | 0.145 | 0.0342 | – |
| COc1cc(OC)cc(-c2ccc3c(c2)CCC2(CC2)C3NC(=O)O[C@@H]2CN3CCC2CC3)c1 (stereo partly drawn) [Example 214, (S)-quinuclidin-3-yl (6′-(3,5-dimethoxyphenyl)-3′,4′-dihydro-1′H-spiro[cyclopropane-1,2′-naphthalen]-1′-yl)carbamate] | 0.0623 | 0.0326 | – |
| COc1ccc(-c2ccc3c(c2)CCC2(CC2)C3NC(=O)O[C@@H]2CN3CCC2CC3)cc1 (stereo partly drawn) [Example 215, (S)-quinuclidin-3-yl (6′-(4-methoxyphenyl)-3′,4′-dihydro-1′H-spiro[cyclopropane-1,2′-naphthalen]-1′-yl) carbamate] | – | 0.00235 | 0.0573 |
| COc1cccc(-c2ccc3c(c2)CCC2(CC2)C3NC(=O)O[C@@H]2CN3CCC2CC3)c1 (stereo partly drawn) [Example 216, (S)-quinuclidin-3-yl (6′-(3-methoxyphenyl)-3′,4′-dihydro-1′H-spiro[cyclopropane-1,2′-naphthalen]-1′-yl) carbamate] | – | 0.0122 | 0.115 |
| CCOc1ccc(-c2ccc3c(c2)CCC2(CC2)C3NC(=O)O[C@@H]2CN3CCC2CC3)cc1 (stereo partly drawn) [Example 217, (S)-quinuclidin-3-yl (6′-(4-ethoxyphenyl)-3′,4′-dihydro-1′H-spiro[cyclopropane-1,2′-naphthalen]-1′-yl)carbamate] | 0.0158 | 0.00101 | – |
| CCOc1cccc(-c2ccc3c(c2)CCC2(CC2)C3NC(=O)O[C@@H]2CN3CCC2CC3)c1 (stereo partly drawn) [Example 218, (S)-quinuclidin-3-yl (6′-(3-ethoxyphenyl)-3′,4′-dihydro-1′H-spiro[cyclopropane-1,2′-naphthalen]-1′-yl)carbamate] | 0.0633 | 0.0198 | – |
| CC(C)Oc1ccc(-c2ccc3c(c2)CCC2(CC2)C3NC(=O)O[C@@H]2CN3CCC2CC3)cc1 (stereo partly drawn) [Example 219, (S)-quinuclidin-3-yl (6′-(4-isopropoxyphenyl)-3′,4′-dihydro-1′H-spiro[cyclopropane-1,2′-naphthalen]-1′-yl)carbamate] | 0.016 | 0.0011 | – |
| CCCOc1ccc(-c2ccc3c(c2)CCC2(CC2)C3NC(=O)O[C@@H]2CN3CCC2CC3)cc1 (stereo partly drawn) [Example 220, (S)-quinuclidin-3-yl (6′-(4-propoxyphenyl)-3′,4′-dihydro-1′H-spiro[cyclopropane-1,2′-naphthalen]-1′-yl) carbamate] | – | 0.00063 | 0.0067 |
| CCc1ccc(-c2ccc3c(c2)CCC2(CC2)C3NC(=O)O[C@@H]2CN3CCC2CC3)cc1 (stereo partly drawn) [Example 221, (S)-quinuclidin-3-yl (6′-(4-ethylphenyl)-3′,4′-dihydro-1′H-spiro[cyclopropane-1,2′-naphthalen]-1′-yl)carbamate] | 0.0188 | 0.00201 | – |
| CCCc1ccc(-c2ccc3c(c2)CCC2(CC2)C3NC(=O)O[C@@H]2CN3CCC2CC3)cc1 (stereo partly drawn) [Example 222, (S)-quinuclidin-3-yl (6′-(4-propylphenyl)-3′,4′-dihydro-1′H-spiro[cyclopropane-1,2′-naphthalen]-1′-yl)carbamate] | 0.0093 | 0.00075 | – |
| CC(C)c1ccc(-c2ccc3c(c2)CCC2(CC2)C3NC(=O)O[C@@H]2CN3CCC2CC3)cc1 (stereo partly drawn) [Example 223, (S)-quinuclidin-3-yl (6′-(4-isopropylphenyl)-3′,4′-dihydro-1′H-spiro[cyclopropane-1,2′-naphthalen]-1′-yl)carbamate] | 0.0241 | 0.0024 | – |
| CC(C)Cc1ccc(-c2ccc3c(c2)CCC2(CC2)C3NC(=O)O[C@@H]2CN3CCC2CC3)cc1 (stereo partly drawn) [Example 224, (S)-quinuclidin-3-yl (6′-(4-isobutylphenyl)-3′,4′-dihydro-1′H-spiro[cyclopropane-1,2′-naphthalen]-1′-yl)carbamate] | 0.0067 | 0.00153 | – |
| CC(C)(C)c1ccc(-c2ccc3c(c2)CCC2(CC2)C3NC(=O)O[C@@H]2CN3CCC2CC3)cc1 (stereo partly drawn) [Example 225, (S)-quinuclidin-3-yl (6′-(4-(tert-butyl)phenyl)-3′,4′-dihydro-1′H-spiro[cyclopropane-1,2′-naphthalen]-1′-yl)carbamate] | 0.0224 | 0.00655 | – |
| O=C(NC1c2ccc(-c3ccc(C4CC4)cc3)cc2CCC12CC2)O[C@@H]1CN2CCC1CC2 (stereo partly drawn) [Example 226, (S)-quinuclidin-3-yl (6′-(4-cyclopropylphenyl)-3′,4′-dihydro-1′H-spiro[cyclopropane-1,2′-naphthalen]-1′-yl)carbamate] | 0.0108 | 0.00093 | – |
